Measured values from article PMC7026418, “The kinase polypharmacology landscape of clinical PARP inhibitors” (Scientific Reports, 2020).
Read-outs that look alike come from different tables or passages of the source.

Columns and labels:
Test in all cases: biochemical
Parameters in all cases: DiscoveRx KINOMEscan active site-directed competition binding; percent of control kinase bound to immobilised ligand
FLT3(ITD) = biological target: T1, FLT3(ITD) (Homo sapiens, UniProt P36888, ITD)
T1 sequence (P36888 564-993): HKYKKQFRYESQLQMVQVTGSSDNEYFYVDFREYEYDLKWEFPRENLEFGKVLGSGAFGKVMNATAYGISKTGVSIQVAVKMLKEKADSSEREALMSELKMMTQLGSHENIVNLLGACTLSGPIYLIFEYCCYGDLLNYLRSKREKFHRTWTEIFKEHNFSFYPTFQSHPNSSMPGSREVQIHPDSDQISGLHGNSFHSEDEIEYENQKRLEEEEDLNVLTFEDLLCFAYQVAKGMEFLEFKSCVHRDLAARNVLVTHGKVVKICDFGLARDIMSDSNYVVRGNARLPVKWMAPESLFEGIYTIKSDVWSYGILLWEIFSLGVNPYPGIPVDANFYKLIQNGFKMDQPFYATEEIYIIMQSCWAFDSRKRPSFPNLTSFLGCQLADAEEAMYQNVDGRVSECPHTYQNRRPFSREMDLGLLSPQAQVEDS

BTK = BTK (Homo sapiens, UniProt Q06187)
Chain of BTK (Q06187 whole entry): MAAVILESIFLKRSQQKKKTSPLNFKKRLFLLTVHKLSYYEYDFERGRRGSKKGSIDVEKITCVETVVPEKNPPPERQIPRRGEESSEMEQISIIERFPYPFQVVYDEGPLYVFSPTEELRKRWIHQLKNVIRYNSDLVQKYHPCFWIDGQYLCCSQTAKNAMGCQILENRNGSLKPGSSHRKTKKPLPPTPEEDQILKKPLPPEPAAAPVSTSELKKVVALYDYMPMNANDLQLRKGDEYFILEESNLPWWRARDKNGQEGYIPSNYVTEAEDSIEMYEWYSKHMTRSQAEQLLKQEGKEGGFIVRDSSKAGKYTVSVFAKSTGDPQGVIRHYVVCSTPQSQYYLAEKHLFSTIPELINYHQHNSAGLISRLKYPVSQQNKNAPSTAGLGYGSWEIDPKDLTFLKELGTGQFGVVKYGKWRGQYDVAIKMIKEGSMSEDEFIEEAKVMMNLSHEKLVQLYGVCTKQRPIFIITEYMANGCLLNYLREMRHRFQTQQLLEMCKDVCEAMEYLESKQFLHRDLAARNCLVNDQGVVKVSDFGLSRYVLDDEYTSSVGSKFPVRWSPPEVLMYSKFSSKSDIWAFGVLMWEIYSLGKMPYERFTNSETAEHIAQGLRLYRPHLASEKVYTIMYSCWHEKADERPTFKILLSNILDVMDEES

RIOK1 = biological target: T2, RIOK1 (Homo sapiens, UniProt Q9BRS2)
T2 sequence (Q9BRS2 1-568): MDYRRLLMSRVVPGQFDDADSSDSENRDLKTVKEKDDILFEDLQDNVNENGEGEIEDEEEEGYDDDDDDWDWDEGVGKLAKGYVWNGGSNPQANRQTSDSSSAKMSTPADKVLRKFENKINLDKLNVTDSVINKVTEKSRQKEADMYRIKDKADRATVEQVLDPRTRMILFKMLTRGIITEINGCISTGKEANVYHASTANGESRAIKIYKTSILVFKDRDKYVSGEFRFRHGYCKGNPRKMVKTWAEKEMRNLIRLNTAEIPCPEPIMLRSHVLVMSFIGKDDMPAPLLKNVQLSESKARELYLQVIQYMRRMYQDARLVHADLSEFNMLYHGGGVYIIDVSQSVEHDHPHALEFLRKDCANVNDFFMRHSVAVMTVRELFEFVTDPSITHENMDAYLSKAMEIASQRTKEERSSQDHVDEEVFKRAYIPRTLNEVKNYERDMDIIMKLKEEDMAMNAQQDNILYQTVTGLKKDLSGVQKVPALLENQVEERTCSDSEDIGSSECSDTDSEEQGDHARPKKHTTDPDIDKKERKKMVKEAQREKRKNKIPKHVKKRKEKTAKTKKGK

RET(M918T) = RET(M918T) (Homo sapiens, UniProt P07949, M918T)
Chain of RET(M918T) (P07949 whole entry M918T): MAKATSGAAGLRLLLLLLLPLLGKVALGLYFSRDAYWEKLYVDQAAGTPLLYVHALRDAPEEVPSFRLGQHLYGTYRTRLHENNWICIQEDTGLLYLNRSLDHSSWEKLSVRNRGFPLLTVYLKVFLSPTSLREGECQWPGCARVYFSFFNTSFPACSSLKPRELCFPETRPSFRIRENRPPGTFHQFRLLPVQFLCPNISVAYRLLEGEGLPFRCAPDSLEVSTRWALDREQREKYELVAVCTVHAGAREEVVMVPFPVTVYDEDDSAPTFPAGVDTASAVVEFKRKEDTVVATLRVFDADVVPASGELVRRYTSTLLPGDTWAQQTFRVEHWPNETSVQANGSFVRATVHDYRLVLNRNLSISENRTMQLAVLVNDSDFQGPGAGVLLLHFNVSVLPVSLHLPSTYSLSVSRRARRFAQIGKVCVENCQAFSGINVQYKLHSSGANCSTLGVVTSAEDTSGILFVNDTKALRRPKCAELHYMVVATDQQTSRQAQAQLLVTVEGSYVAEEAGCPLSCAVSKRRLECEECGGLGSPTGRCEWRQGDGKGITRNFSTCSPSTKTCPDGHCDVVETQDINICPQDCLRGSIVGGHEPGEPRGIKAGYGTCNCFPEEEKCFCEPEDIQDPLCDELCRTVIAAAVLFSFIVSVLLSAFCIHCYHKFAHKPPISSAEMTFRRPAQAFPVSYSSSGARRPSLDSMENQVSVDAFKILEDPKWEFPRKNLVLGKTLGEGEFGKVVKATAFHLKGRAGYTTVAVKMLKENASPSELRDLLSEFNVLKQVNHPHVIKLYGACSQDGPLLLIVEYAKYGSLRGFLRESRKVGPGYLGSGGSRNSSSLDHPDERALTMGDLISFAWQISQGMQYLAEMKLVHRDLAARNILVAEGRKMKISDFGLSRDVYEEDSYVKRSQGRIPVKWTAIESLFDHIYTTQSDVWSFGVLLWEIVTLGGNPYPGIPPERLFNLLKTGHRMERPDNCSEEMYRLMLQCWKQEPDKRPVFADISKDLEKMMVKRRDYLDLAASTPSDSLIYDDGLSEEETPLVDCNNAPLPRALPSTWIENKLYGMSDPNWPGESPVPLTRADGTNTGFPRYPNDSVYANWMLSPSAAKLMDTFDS

CSK = CSK (Homo sapiens, UniProt P41240)
Chain of CSK (P41240 whole entry): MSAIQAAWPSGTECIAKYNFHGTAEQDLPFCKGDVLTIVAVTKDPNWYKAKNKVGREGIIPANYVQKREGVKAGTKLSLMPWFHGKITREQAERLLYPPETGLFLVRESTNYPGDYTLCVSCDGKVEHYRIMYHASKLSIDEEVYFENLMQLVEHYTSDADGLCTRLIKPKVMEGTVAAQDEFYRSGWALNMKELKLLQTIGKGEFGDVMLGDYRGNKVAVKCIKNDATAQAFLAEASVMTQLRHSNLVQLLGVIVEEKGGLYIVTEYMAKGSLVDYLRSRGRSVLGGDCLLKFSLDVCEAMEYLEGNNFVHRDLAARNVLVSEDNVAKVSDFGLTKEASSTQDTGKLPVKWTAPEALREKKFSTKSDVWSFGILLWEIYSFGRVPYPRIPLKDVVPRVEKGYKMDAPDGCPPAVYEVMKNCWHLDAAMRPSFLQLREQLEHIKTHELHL

PAK2 = PAK2 (Homo sapiens, UniProt Q13177)
Chain of PAK2 (Q13177 whole entry): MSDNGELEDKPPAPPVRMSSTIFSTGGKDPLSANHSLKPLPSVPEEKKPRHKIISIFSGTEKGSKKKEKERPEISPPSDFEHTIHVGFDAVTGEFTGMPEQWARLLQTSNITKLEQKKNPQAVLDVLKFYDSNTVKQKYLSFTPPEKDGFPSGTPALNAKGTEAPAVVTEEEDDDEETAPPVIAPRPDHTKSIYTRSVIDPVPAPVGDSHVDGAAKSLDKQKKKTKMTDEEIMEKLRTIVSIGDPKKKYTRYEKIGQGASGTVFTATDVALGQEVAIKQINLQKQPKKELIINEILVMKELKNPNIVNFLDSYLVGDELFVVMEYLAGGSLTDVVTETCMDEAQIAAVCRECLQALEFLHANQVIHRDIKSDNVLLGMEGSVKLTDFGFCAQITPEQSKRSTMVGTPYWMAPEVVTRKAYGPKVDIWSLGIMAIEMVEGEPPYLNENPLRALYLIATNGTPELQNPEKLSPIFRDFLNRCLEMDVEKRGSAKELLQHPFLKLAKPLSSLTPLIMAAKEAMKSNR

KIT(D816V) = KIT(D816V) (Homo sapiens, UniProt P10721, D816V)
Chain of KIT(D816V) (P10721 whole entry D816V): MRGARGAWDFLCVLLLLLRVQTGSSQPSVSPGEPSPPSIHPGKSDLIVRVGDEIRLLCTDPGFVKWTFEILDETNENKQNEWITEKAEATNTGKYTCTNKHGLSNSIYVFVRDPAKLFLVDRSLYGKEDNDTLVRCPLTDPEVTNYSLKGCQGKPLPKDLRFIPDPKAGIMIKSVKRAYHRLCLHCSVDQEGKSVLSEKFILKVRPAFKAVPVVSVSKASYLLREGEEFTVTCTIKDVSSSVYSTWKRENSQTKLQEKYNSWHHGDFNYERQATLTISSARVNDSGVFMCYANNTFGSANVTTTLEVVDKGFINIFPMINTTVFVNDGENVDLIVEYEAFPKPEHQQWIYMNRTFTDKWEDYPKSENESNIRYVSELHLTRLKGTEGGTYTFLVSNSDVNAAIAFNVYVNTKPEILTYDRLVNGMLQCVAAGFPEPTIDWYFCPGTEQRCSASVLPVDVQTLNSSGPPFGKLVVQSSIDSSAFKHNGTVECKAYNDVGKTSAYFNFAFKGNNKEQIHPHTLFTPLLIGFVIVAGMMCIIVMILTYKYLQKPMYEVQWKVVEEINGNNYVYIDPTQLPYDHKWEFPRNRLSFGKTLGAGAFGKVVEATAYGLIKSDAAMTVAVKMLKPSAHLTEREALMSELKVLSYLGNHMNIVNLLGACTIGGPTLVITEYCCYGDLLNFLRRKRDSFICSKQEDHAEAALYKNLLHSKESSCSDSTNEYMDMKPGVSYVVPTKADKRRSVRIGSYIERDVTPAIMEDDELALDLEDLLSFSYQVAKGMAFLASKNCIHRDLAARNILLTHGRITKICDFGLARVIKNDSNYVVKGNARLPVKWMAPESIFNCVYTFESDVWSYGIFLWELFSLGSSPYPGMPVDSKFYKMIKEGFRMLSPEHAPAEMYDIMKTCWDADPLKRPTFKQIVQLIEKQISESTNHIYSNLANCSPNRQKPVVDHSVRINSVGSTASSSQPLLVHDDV

PKN2 = PKN2 (Homo sapiens, UniProt Q16513)
ABL1-nonphosphorylated = biological target: T3, ABL1-nonphosphorylated (Homo sapiens, UniProt P00519)
T3 construct: nonphosphorylated
T3 sequence (P00519 whole entry): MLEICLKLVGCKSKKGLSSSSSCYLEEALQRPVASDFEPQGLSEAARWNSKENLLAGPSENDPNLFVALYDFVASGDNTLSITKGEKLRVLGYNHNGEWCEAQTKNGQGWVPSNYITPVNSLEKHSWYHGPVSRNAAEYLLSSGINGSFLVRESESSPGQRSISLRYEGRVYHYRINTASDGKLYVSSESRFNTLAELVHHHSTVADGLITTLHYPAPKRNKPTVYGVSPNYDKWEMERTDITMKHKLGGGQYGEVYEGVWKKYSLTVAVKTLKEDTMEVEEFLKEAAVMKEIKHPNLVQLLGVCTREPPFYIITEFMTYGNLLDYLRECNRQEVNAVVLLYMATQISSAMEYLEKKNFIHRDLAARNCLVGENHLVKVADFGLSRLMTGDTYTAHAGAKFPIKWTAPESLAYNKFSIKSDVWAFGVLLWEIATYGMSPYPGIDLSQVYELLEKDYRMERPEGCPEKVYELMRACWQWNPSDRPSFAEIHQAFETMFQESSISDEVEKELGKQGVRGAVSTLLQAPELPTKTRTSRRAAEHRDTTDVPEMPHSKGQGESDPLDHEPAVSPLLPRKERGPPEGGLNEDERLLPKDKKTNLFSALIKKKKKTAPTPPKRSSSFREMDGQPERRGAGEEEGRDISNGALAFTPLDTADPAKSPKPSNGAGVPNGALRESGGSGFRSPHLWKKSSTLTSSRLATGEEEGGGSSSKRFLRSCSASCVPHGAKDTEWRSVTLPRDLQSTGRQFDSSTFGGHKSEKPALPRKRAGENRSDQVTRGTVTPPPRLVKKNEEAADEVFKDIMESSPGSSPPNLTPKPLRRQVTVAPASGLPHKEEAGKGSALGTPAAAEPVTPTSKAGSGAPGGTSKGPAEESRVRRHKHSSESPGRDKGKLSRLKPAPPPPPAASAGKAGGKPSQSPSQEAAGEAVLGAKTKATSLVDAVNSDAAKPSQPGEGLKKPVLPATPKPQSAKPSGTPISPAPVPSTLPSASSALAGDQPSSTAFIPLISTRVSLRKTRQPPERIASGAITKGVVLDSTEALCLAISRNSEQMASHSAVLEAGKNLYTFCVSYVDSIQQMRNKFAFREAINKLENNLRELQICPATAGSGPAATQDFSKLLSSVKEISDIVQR

AKT2 = AKT2 (Homo sapiens, UniProt P31751)
MYO3A = MYO3A (Homo sapiens, UniProt Q8NEV4)
HCK = HCK (Homo sapiens, UniProt P08631)
LIMK1 = LIMK1 (Homo sapiens, UniProt P53667)
[1] = read-out: Talazoparib (BMN 673) / %Ctrl @ 10000nM
[2] = read-out: Olaparib / %Ctrl @ 10000nM
[3] = read-out: Niraparib (MK-4827) / %Ctrl @ 10000nM
[4] = read-out: Rucaparib / %Ctrl @ 10000nM, binding competition, % of control

Cn1ncnc1[C@H]1c2n[nH]c(=O)c3cc(F)cc(c23)N[C@@H]1c1ccc(F)cc1 [Talazoparib] was tested. Which percent of control binding at 10 µM (FLT3(ITD); [1]) did it give?
The percent of control binding at 10 µM was 100%.

What about the percent of control binding at 10 µM (BTK; [1]) of the same compound?
Its percent of control binding at 10 µM is 100%.

And the percent of control binding at 10 µM (RIOK1; [1])?
The percent of control binding at 10 µM was 100%.

What about the percent of control binding at 10 µM (RET(M918T); [1]) of the same compound?
Its percent of control binding at 10 µM is 96%.

And the percent of control binding at 10 µM (CSK; [1])?
The percent of control binding at 10 µM was 87%.

What about the percent of control binding at 10 µM (PAK2; [1]) of the same compound?
Its percent of control binding at 10 µM is 84%.

What about the percent of control binding at 10 µM (KIT(D816V); [1]) of the same compound?
The percent of control binding at 10 µM was 94%.

What about the percent of control binding at 10 µM (PKN2; [1]) of the same compound?
The percent of control binding at 10 µM was 85%.

What about the percent of control binding at 10 µM (ABL1-nonphosphorylated; [1]) of the same compound?
The percent of control binding at 10 µM was 100%.

And the percent of control binding at 10 µM (AKT2; [1])?
Its percent of control binding at 10 µM is 84%.

And the percent of control binding at 10 µM (MYO3A; [1])?
The percent of control binding at 10 µM was 83%.

And the percent of control binding at 10 µM (HCK; [1])?
Its percent of control binding at 10 µM is 86%.

And the percent of control binding at 10 µM (LIMK1; [1])?
Its percent of control binding at 10 µM is 99%.

Which results are given for O=C(c1cc(Cc2n[nH]c(=O)c3ccccc23)ccc1F)N1CCN(C(=O)C2CC2)CC1 [Olaparib]?
percent of control binding at 10 µM (FLT3(ITD); [2]): 100%; percent of control binding at 10 µM (BTK; [2]): 86%; percent of control binding at 10 µM (RIOK1; [2]): 100%; percent of control binding at 10 µM (RET(M918T); [2]): 100%; percent of control binding at 10 µM (CSK; [2]): 99%; percent of control binding at 10 µM (PAK2; [2]): 92%; percent of control binding at 10 µM (KIT(D816V); [2]): 100%; percent of control binding at 10 µM (PKN2; [2]): 100%; percent of control binding at 10 µM (ABL1-nonphosphorylated; [2]): 87%; percent of control binding at 10 µM (AKT2; [2]): 79%; percent of control binding at 10 µM (MYO3A; [2]): 100%; percent of control binding at 10 µM (HCK; [2]): 96%; percent of control binding at 10 µM (LIMK1; [2]): 100%

What does the source list for NC(=O)c1cccc2cn(-c3ccc([C@@H]4CCCNC4)cc3)nc12 [Niraparib]?
percent of control binding at 10 µM (FLT3(ITD); [3]): 92%; percent of control binding at 10 µM (BTK; [3]): 95%; percent of control binding at 10 µM (RIOK1; [3]): 95%; percent of control binding at 10 µM (RET(M918T); [3]): 95%; percent of control binding at 10 µM (CSK; [3]): 90%; percent of control binding at 10 µM (PAK2; [3]): 45%; percent of control binding at 10 µM (KIT(D816V); [3]): 89%; percent of control binding at 10 µM (PKN2; [3]): 95%; percent of control binding at 10 µM (ABL1-nonphosphorylated; [3]): 94%; percent of control binding at 10 µM (AKT2; [3]): 93%; percent of control binding at 10 µM (MYO3A; [3]): 72%; percent of control binding at 10 µM (HCK; [3]): 70%; percent of control binding at 10 µM (LIMK1; [3]): 82%

Which percent of control binding at 10 µM (BTK; [4]) does the source give for CNCc1ccc(-c2[nH]c3cc(F)cc4c3c2CCNC4=O)cc1 [Rucaparib] here?
Its percent of control binding at 10 µM is 83%.

What about the percent of control binding at 10 µM (RIOK1; [4]) of the same compound?
Its percent of control binding at 10 µM is 100%.

And the percent of control binding at 10 µM (RET(M918T); [4])?
Its percent of control binding at 10 µM is 97%.

What about the percent of control binding at 10 µM (CSK; [4]) of the same compound?
Its percent of control binding at 10 µM is 100%.

And the percent of control binding at 10 µM (PAK2; [4])?
The percent of control binding at 10 µM was 31%.

And the percent of control binding at 10 µM (KIT(D816V); [4])?
Its percent of control binding at 10 µM is 96%.

What about the percent of control binding at 10 µM (PKN2; [4]) of the same compound?
Its percent of control binding at 10 µM is 99%.

What about the percent of control binding at 10 µM (ABL1-nonphosphorylated; [4]) of the same compound?
Its percent of control binding at 10 µM is 82%.

And the percent of control binding at 10 µM (AKT2; [4])?
The percent of control binding at 10 µM was 87%.

And the percent of control binding at 10 µM (MYO3A; [4])?
The percent of control binding at 10 µM was 42%.

And the percent of control binding at 10 µM (HCK; [4])?
The percent of control binding at 10 µM was 74%.

What about the percent of control binding at 10 µM (LIMK1; [4]) of the same compound?
Its percent of control binding at 10 µM is 100%.
